The text below walks through data of ChEMBL document CHEMBL4842357, “Discovery of Novel Apigenin-Piperazine Hybrids as Potent and Selective Poly (ADP-Ribose) Polymerase-1 (PARP-1) Inhibitors for the Treatment of Cancer” (J Med Chem, 2021).

Active and inactive are the calls of the source. No cut-off for these calls is given here.

Data set [1] concerns the target T1, Poly [ADP-ribose] polymerase 1 (Homo sapiens, UniProt P09874). Description: Inhibition of recombinant human full-length PARP-1 using biotinylated substrate.
The target in data set [2] is T2, Poly [ADP-ribose] polymerase 2 (Homo sapiens, UniProt Q9UGN5). Description: Inhibition of recombinant human full-length PARP-2 using biotinylated substrate.
Data set [3] can be described thus: Acute toxicity in ICR mouse assessed as change in body weight at 1000 mg/kg, po administered only once at day 1 and measured every two days for 14 days. It counts as organism-based. The conditions noted are these: in vivo, 336 h, time 14 day.
Data set [4] can be described thus: Acute toxicity in ICR mouse assessed as change in blood routine at 1000 mg/kg, po administered only once at day 1 and measured every two days for 14 days. As to conditions: in vivo, 336 h, time 14 day. The data set is classed as organism-based.
Data set [5] can be described thus: Hepatotoxicity in ICR mouse assessed as effect on ALT level at 1000 mg/kg, po administered only once at day 1 and measured every two days for 14 days (reference value: 28.6 +/- 6.9 U/L). As to conditions: in vivo, 336 h, time 14 day. It counts as toxicity, organism-based.
Data set [6] is described as follows: Hepatotoxicity in ICR mouse assessed as effect on AST level at 1000 mg/kg, po administered only once at day 1 and measured every two days for 14 days (reference value: 61.5 +/- 3.7 U/L). The data set is classed as toxicity, organism-based. The conditions noted are these: in vivo, 336 h, time 14 day.
Data set [7] is described as follows: Renal toxicity in ICR mouse assessed as effect on BUN level at 1000 mg/kg, po administered only once at day 1 and measured every two days for 14 days (reference value: 8.9 +/- 0.9 mmol/L). The conditions noted are these: in vivo, 336 h, time 14 day. It counts as organism-based.
Another data set concerns the target CYP2C19 (Homo sapiens, UniProt P33261). Description: Inhibition of CYP2C19 (unknown origin) at 10 uM incubated for 10 to 30 mins in presence of NADPH regeneration system by microplate analysis relative to control. The data set is classed as ADME. As to conditions: time 10-30 min.
The target in another data set is CYP2D6 (Homo sapiens, UniProt P10635). The data set can be described thus: Inhibition of CYP2D6 (unknown origin) at 10 uM incubated for 10 to 30 mins in presence of NADPH regeneration system by microplate analysis relative to control. As to conditions: time 10-30 min. It counts as ADME.
In a further data set the target is CYP2C9 (Homo sapiens, UniProt P11712). The data set can be described thus: Inhibition of CYP2C9 (unknown origin) at 10 uM incubated for 10 to 30 mins in presence of NADPH regeneration system by microplate analysis relative to control. It counts as ADME. As to conditions: time 10-30 min.
Another data set addresses T3, CYP1A2 (Homo sapiens, UniProt P05177).
T3 sequence (P05177 whole entry): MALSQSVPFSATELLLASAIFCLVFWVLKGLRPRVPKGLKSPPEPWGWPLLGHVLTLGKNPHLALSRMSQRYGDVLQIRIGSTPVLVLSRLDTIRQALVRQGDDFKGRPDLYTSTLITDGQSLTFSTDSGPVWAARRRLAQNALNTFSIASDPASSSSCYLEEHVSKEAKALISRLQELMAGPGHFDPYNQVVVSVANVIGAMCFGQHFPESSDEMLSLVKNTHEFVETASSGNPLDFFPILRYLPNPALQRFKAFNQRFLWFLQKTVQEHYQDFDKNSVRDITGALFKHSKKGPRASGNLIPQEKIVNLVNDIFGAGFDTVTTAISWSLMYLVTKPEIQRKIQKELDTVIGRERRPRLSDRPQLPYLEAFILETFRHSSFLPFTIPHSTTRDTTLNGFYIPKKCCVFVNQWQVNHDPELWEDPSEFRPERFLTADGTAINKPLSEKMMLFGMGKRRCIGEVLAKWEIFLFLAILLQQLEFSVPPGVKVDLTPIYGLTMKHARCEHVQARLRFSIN
The data set can be described thus: Inhibition of CYP1A2 (unknown origin) at 10 uM incubated for 10 to 30 mins in presence of NADPH regeneration system by microplate analysis relative to control. It counts as ADME. As to conditions: time 10-30 min.

The target of another data set is CYP3A4 (Homo sapiens, UniProt P08684). Description: Inhibition of CYP3A4 (unknown origin) at 10 uM incubated for 10 to 30 mins in presence of NADPH regeneration system by microplate analysis relative to control. As to conditions: time 10-30 min. The data set is classed as ADME.
Data set [8] can be described thus: Stability in rat plasma assessed as compound remaining after 0.5 hrs. The data set is classed as ADME, cell-free. As to conditions: read-out: Stabilty.
The nature of data set [9]: Stability in rat plasma assessed as compound remaining after 4 hrs. It counts as ADME, cell-free. The conditions noted are these: read-out: Stabilty.
The target of data set [10] is T1, Poly [ADP-ribose] polymerase 1. Description: Binding affinity to recombinant human PARP-1 by SPR analysis. Background: SPR reads the build-up and loss of mass on a sensor chip optically.
Data set [11] concerns the target T2, Poly [ADP-ribose] polymerase 2. The data set can be described thus: Binding affinity to recombinant human PARP-2 by SPR analysis.
The species entered for the next data set is Homo sapiens. Description: Selectivity index, ratio of IC50 for inhibition of recombinant human full-length PARP-2 to IC50 for inhibition of recombinant human full-length PARP-1.
Data set [12] has as its system A549. The data set can be described thus: Cytotoxicity against human A549 cells assessed as induction of CBP cytotoxicity incubated for 48 hrs in presence of CBP by MTT assay. It counts as functional, cell-based. As to conditions: dose 0.1-10 µM.
In data set [13] the test system is A549. The data set can be described thus: Cytotoxicity against human A549 cells assessed as reduction in cell viability at 0.1 to 10 uM incubated for 48 hrs by MTT assay. It counts as functional, cell-based. As to conditions: dose 0.1-10 µM. On the technique in general: Tetrazolium dyes change colour on reduction, which living cells bring about.
Data set [14] deals with SK-OV-3. The data set can be described thus: Cytotoxicity against human BRCA-1 deficient SK-OV-3 cells assessed as reduction in cell viability at 0.1 to 10 uM incubated for 48 hrs by MTT assay. It counts as functional, cell-based. As to conditions: dose 0.1-10 µM.
Data set [15] is described as follows: Acute toxicity in ICR mouse assessed as death at 1000 mg/kg, po administered only once at day 1 and measured after 5 to 8 days. It counts as organism-based. The conditions noted are these: in vivo, time 5-8 day.
For data set [16], the system named is SK-OV-3. Description: Antitumor activity against human SK-OV-3 cells xenografted in BALB/c nude mouse assessed as decrease in tumor volume at 50 mg/kg, po administered once daily measured for 28 days. The data set is classed as functional, organism-based. The conditions noted are these: time 28.0 day. In general terms: A xenograft is tissue or cells of one species grown in another, often human tumour cells in immunodeficient mice.

In data set [17] the test system is SK-OV-3. Description: Antitumor activity against human SK-OV-3 cells xenografted in BALB/c nude mouse assessed as relative tumor volume at 50 mg/kg, po administered once daily for 12 days. As to conditions: time 12 day. The data set is classed as functional.

T1 sequence (P09874 whole entry): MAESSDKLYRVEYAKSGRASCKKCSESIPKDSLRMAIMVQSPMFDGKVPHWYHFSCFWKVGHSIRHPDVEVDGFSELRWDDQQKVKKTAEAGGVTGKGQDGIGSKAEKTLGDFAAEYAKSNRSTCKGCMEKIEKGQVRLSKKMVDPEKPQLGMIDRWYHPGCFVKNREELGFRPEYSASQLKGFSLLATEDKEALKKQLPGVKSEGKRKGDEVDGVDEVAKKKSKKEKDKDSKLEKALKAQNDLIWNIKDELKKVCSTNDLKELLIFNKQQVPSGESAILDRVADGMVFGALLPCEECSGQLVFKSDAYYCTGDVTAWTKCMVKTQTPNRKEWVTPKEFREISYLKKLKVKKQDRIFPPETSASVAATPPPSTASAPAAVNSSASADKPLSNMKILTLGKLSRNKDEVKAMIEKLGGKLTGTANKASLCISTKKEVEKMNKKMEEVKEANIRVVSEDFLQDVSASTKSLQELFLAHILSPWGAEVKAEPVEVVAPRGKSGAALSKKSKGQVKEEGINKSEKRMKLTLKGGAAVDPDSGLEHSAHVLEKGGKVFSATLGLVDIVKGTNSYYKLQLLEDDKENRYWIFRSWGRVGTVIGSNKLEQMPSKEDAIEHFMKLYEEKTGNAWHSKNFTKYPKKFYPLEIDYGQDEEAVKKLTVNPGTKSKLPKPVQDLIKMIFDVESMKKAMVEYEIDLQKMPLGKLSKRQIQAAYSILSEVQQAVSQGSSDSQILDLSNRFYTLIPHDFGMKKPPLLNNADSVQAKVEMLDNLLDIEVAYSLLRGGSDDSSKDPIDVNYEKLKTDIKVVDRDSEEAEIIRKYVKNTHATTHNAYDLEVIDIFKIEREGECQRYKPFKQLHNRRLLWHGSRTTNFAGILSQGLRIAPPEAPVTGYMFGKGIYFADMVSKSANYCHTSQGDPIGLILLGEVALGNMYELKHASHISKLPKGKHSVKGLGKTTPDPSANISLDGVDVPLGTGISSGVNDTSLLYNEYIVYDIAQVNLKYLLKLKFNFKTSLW
T2 sequence (Q9UGN5 whole entry): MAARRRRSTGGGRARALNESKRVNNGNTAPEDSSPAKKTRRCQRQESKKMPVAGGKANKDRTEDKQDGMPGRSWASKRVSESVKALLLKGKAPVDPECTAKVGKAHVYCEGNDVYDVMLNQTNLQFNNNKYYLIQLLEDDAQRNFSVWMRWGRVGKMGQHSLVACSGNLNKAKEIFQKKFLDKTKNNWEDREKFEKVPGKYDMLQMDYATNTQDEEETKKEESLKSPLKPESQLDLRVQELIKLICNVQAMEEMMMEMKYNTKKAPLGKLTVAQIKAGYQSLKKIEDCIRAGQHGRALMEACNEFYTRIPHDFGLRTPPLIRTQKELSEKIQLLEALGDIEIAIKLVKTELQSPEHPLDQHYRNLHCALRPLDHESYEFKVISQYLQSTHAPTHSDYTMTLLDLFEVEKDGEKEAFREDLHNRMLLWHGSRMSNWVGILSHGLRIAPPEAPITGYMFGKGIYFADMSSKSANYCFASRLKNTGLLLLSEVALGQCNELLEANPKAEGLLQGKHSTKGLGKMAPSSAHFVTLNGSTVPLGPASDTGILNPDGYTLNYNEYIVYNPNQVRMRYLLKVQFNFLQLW
Sequence of CYP3A4 (P08684 whole entry): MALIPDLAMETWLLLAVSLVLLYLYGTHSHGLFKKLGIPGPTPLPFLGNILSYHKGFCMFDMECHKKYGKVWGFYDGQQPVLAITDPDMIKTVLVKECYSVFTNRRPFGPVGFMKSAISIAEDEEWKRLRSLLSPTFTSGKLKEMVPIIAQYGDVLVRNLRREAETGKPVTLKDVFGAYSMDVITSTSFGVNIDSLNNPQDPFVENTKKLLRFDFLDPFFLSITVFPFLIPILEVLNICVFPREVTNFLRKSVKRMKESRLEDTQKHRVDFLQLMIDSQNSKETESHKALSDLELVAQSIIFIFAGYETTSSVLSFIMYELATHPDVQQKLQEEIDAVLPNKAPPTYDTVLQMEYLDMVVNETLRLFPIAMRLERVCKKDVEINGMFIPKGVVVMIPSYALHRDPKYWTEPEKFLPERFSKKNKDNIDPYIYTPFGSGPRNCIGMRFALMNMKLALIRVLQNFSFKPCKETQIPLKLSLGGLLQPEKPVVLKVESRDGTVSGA
Sequence of CYP2C9 (P11712 whole entry): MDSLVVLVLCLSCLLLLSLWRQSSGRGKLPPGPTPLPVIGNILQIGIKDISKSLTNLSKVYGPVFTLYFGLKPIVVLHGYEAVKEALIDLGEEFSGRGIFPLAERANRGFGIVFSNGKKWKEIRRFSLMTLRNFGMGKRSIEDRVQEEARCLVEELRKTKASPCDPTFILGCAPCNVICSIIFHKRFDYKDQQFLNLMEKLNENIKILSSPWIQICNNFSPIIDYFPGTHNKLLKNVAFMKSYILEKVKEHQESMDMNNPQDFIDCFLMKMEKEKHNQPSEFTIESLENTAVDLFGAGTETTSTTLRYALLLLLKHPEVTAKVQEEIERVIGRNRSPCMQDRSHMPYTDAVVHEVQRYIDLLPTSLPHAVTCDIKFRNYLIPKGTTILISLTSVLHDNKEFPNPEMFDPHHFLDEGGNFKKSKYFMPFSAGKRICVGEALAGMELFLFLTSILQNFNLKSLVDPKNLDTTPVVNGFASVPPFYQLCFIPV
Sequence of CYP2C19 (P33261 whole entry): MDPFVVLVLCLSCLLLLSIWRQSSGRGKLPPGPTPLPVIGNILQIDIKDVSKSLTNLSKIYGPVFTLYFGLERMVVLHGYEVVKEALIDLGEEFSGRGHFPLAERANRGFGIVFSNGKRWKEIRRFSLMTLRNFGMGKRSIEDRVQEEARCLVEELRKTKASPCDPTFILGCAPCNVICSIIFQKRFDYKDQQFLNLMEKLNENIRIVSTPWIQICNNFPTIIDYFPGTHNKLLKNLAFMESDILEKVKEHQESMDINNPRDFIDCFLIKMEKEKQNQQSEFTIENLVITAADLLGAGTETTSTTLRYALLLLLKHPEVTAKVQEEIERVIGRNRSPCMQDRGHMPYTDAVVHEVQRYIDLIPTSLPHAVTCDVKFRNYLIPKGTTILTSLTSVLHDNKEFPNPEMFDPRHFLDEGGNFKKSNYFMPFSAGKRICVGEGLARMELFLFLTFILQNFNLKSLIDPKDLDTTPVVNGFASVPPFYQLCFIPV
Sequence of CYP2D6 (P10635 whole entry): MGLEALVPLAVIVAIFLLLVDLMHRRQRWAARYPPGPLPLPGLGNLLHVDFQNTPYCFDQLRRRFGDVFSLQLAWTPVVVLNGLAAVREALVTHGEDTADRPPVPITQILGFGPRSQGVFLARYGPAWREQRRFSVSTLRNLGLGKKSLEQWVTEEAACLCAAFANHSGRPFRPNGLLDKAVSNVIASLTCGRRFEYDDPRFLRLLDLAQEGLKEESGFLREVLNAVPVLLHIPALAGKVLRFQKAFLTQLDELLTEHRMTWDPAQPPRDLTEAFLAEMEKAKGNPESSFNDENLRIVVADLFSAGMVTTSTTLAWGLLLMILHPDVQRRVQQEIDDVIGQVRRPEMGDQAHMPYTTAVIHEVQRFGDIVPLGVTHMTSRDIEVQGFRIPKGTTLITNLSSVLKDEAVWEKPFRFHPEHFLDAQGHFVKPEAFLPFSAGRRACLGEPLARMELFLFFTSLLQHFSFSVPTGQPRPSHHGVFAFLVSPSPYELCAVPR

For orientation: IC50 means the concentration that gives 50% inhibition. Broadly, the inhibition is the drop in the measured response relative to a control, in per cent. Broadly, the Kd is the equilibrium constant for the complex coming apart. Take `O=c1cc(-c2ccc(O)cc2)oc2c(CN3CCN(Cc4cccs4)CC3)c(O)cc(O)c12`: the IC50 in data set [1] was 14.7 nM; in [2], 900 nM. Further, the Activity entry was “Non-Toxic” in data set [3]; “Non-Toxic” in data set [4]; 27.6 U/L in [5]; 64.1 U/L in data set [6]; 9 mmol/L in data set [7]. Moreover, the inhibition at 10 µM on CYP2C19 is 70.4%; on CYP2D6, 92.7%; at CYP2C9 it was 94.7%; on CYP1A2, 85.2%; on CYP3A4, 93.4%. Besides, the remaining at 0.5 h in data set [8] came out at 83.4%. The remaining at 4 h in data set [9] turned out to be 46.2%. The Kd in data set [10] stood at 55 nM; in data set [11], 605 nM.
As for `O=c1cc(-c2ccc(O)cc2)oc2c(CN3CCN(Cc4ccco4)CC3)c(O)cc(O)c12`, the IC50 in data set [1] came to 17.9 nM; in [2], 1300 nM. Moreover, the Ratio IC50 in the data set filed under Homo sapiens is 72.6. The Activity entry in the data set on A549 [12] is “Dose-Dependent Effect”; in [15], “Toxic”. Besides, the outcome in the data set with A549 [13] was inactive. Also, in the data set on SK-OV-3 [14], the outcome was Active.
In the case of `O=C(c1cc(Cc2n[nH]c(=O)c3ccccc23)ccc1F)N1CCN(C(=O)C2CC2)CC1` [OLAPARIB], the result in the data set with SK-OV-3 [16] was Active. In the data set on SK-OV-3 [17], the Activity is recorded as 2.12.
